Experiments:
[1] = target: T1, human neutrophil elastase (HNE) (Homo sapiens, UniProt P08246); assay: In vitro inhibition of HNE using a fluorogenic peptide substrate (MeOSuc-Ala-Ala-Pro-Val-AMC); assay type: biochemical; settings: 384 MTP format
T1 construct: purchased SERVA Electrophoresis GmbH, Heidelberg, Germany #20927.01
T1 sequence (P08246 30-267): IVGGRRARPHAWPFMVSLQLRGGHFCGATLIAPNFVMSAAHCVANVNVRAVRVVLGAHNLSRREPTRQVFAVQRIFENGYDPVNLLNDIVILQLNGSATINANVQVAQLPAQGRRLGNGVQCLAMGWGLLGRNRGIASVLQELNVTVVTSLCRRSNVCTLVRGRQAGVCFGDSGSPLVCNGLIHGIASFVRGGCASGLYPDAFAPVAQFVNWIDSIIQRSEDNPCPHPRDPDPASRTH
Experimental: I. In Vitro Enzyme Assays of Human Neutrophil Elastase (HNE)
• assay buffer: 0.1 M HEPES-NaOH buffer pH 7.4, 0.5 M NaCl, 0.1% (w/v) bovine serum albumin; • suitable concentration (see below) of HNE (18 U/mg lyophil., #20927.01, SERVA Electrophoresis GmbH, Heidelberg, Germany) in assay buffer; • suitable concentration (see below) of substrate in assay buffer; • suitable concentration of test compounds diluted with assay buffer from a 10 mM stock solution in DMSO.
In Vitro Inhibition of HNE Using a Fluorogenic Peptide Substrate (Continuous Read-Out Signal, 384 MTP Assay Format):
In this protocol, the elastase substrate MeOSuc-Ala-Ala-Pro-Val-AMC (#324740, Calbiochem-Novabiochem Corporation, Merck KGaA, Darmstadt, Germany) is used. The test solution is prepared by mixing 10 μl of test compound dilution, 20 μl of HNE enzyme dilution (final concentration 8-0.4 μU/ml, routinely 2.1 μU/ml) and 20 μl of substrate dilution (final concentration 1 mM-1 μM, routinely 20 μM), respectively. The solution is incubated for 0-2 hrs at 37° C. (routinely one hour). The fluorescence of the liberated AMC due to the enzymatic reaction is measured at 37° C. (TECAN spectra fluor plus plate reader). The rate of increase of the fluorescence (ex. 395 nm, em. 460 nm) is proportional to elastase activity. IC50 values are determined by RFU-versus-[I] plots. Km and Km(app.) values are determined by Lineweaver-Burk plots and converted to Ki values by Dixon plots.

[2] = system: human polymorphonuclear cells (PMNs); assay: In vitro PMN elastolysis assay (tritiated elastin); assay type: cell-based
Experimental: In Vitro PMN Elastolysis Assay:
This assay is used to determine the elastolytic potential of human polymorphonuclear cells (PMNs) and assess the proportion of degradation due to, neutrophil elastase [cf. Z. W. She et al., Am. J. Respir. Cell. Mol. Biol. 9, 386-392 (1993)].
Tritiated elastin, in suspension, is coated on to a 96 well plate at 10 μg per well. Test and reference [ZD-0892 (J. Med. Chem. 40, 1876-1885, 3173-3181 (1997), WO 95/21855) and α1 protease inhibitor (α1PI)] compounds are added to the wells at the appropriate concentrations. Human PMNs are separated from peripheral venous blood of healthy donors and resuspended in culture media. The neutrophils are added to the coated wells at concentrations ranging between 1×10^6 to 1×10^5 cells per well. Porcine pancreatic elastase (1.3 μM) is used as a positive control for the assay, and α1PI (1.2 μM) is used as the positive inhibitor of neutrophil elastase. The cellular control is PMNs without compound at each appropriate cell density. The cells plus compounds are incubated in a humidified incubator at 37° C. for 4 hours. The plates are centrifuged to allow the harvest of cell supernatant only. The supernatant is transferred in 75 μl volumes to corresponding wells of a 96 well Lumaplate™ (solid scintillant containing plates). The plates are dried until no liquid is visible in the wells and read in a beta counter for 3 minutes per well. […]

Row | IC50 [1] | Compound | also measured
1 | 30 nM | CCOC(=O)C1=C(C)N(c2cccc(C(F)(F)F)c2)C(N)=C(C(=O)OCC)C1c1ccc(C#N)cc1 (stereo not shown) [Example 2, Diethyl 2-amino-4-(4-cyanophenyl)-6-methyl-1-[3-(trifluoromethyl)phenyl]-1,4-dihydro-3,5-pyridine-dicarboxylate] | 
2 | 27 nM | CC1=C(C#N)C(c2ccc(C#N)cc2)C(C(N)=O)=C(N)N1c1cccc(C(F)(F)F)c1 (stereo not shown) [Example 4, 2-Amino-5-cyano-4-(4-cyanophenyl)-6-methyl-1-[3-(trifluoromethyl)phenyl]-1,4-dihydro-3-pyridinecarboxamide] | 
3 | 90 nM | CC(=O)C1=C(N)N(c2cccc(C(F)(F)F)c2)C(C)=C(C#N)C1c1ccc(C#N)cc1 (stereo not shown) [Example 12, 5-Acetyl-6-amino-4-(4-cyanophenyl)-2-methyl-1-[3-(trifluoromethyl)phenyl]-1,4-dihydro-3-pyridinecarbonitrile] | 
4 | 40 nM | CCOC(=O)C1=C(N)N(c2cccc(C(F)(F)F)c2)C(COC)=C(C(=O)OC)C1c1ccc(C#N)cc1 (stereo not shown) [Example 25] | 
5 | 800 nM | CCOC(=O)C1=C(C)N(c2cccc(C(F)(F)F)c2)C(N)=C(C(=O)OCC)C1c1ccc(Br)nc1 (stereo not shown) [Example 43] | 
6 | 130 nM | CCNC(=O)NC1=C(C(=O)OCC)C(c2ccc(C#N)cc2)C(C(=O)OCC)=C(C)N1c1cccc(C(F)(F)F)c1 (stereo not shown) [Example 44, Diethyl 4-(4-cyanophenyl)-2-{[(ethylamino)carbonyl]amino}-6-methyl-1-[3-(trifluoromethyl)phenyl]-1,4-dihydro-3,5-pyridinedicarboxylate] | 
7 | 500 nM | CCOC(=O)C1=C(C)N(c2cccc(C(F)(F)F)c2)C(N(C)C)=C(C(=O)OCC)C1c1ccc(C#N)cc1 (stereo not shown) [Example 47, Diethyl 4-(4-cyanophenyl)-2-(dimethylamino)-6-methyl-1-[3-(trifluoromethyl)-phenyl]-1,4-dihydro-3,5-pyridinedicarboxylate] | 
8 | 10 nM | CCOC(=O)C1=C(C)N(c2cccc(C(F)(F)F)c2)C(N)=C(C2=NC(C)(C)CO2)C1c1ccc(C#N)cc1 (stereo not shown) [Example 50, Ethyl 6-amino-4-(4-cyanophenyl)-5-(4,4-dimethyl-4,5-dihydro-1,3-oxazol-2-yl)-2-methyl-1-[3-(trifluoromethyl)phenyl]-1,4-dihydro-3-pyridinecarboxylate] | 
9 |  | COc1ccc(C(=O)N[C@H](C(=O)N2CCC[C@H]2C(=O)N[C@H](C(=O)C(F)(F)F)C(C)C)C(C)C)cc1 [ZD-0892] | IC50 ([2]; n=2 different donors at 3.6×10^5 cells per well, read-out: IC50 (mean±s.e.m.)): 45.5 ± 7.75 nM
10 |  | α1PI: α1 protease inhibitor, reference and positive inhibitor of neutrophil elastase | inhibition of elastolysis of 3H-elastin (mean±s.e.m.) ([2]; at 1.2 μM, n=3 different donors at 3.6×10^5 cells per well): 83.46±3.97%

— US7691854B2, “Dihydropyridine derivatives for use as human neutrophil elastase inhibitors” (Bayer Schering Pharma Aktiengesellschaft, priority 2002, dated 2010)
